Measurements reported in article PMC12505664, “Enflicoxib for the long-term management of canine osteoarthritis—External validation of a population pharmacokinetic model in dogs with osteoarthritis” (Frontiers in Veterinary Science, 2025).
Where two headings read alike, the source gives them in different places.

How the values were obtained:
[1] = Maximum a posteriori Bayesian (MAPB) estimation of individual PK parameters in dogs with OA; assay type: in vivo
Excerpt: As a similar PK behavior between populations was concluded, the same popPK model could be used, and a Bayesian approach was used for the determination of individual enflicoxib and the pyrazol metabolite exposure in osteoarthritic animals.
A maximum a posteriori Bayesian (MAPB) estimation using the post hoc subroutine in NONMEM was used to provide the individual PK parameters in osteoarthritic dogs.
MAPB estimation applied likelihood maximization in the form of minimizing the objective function (minus 2 log likelihood), to estimate individual PK parameters of each dog with OA. In this analysis, the MAPB estimation incorporated both a priori PK information, that is, the established PK model of enflicoxib and the pyrazol metabolite in healthy Beagle dogs, and a posteriori PK data, which corresponds to PK data from osteoarthritic dogs. The individual PK parameters along with individual predicted PK profiles for each dog treated with enflicoxib were calculated by fitting the animal PK dataset, which includes dosing, sampling times, parent and metabolite levels, and covariate information, to the established population enflicoxib and the pyrazol metabolite PK model in healthy Beagle dogs.
The maximum a posteriori Bayesian (MAPB) estimation was applied to provide the most likely individual PK profile for each dog with OA, using the “POSTHOC” subroutine and $ESTIMATION command set to MAXEVAL=0 in NONMEM.
Individual PK parameters and individual PK profiles of enflicoxib and the pyrazol metabolite were estimated for each dog.
Finally, the Bayesian approach enabled the estimation of the main individual PK parameters of enflicoxib and the pyrazol metabolite. Using these individual PK parameters, predicted profiles for each animal were estimated, allowing the calculation of the derived exposure parameters, such as Cmax, Cmin, AUCτ, and T1/2 in all treated dogs. The distribution and the mean estimates of enflicoxib and the pyrazol metabolite PK parameters at selected time points are depicted in Supplementary Figures S3, S4, respectively.

[2] = design: method as in PMID 34160092; conditions: previously validated method, cited from earlier work
[3] = overdose study, repeated weekly administrations, Beagle dogs; cited from earlier work
[4] = mean across weeks, Bayesian predicted profiles

With NS(=O)(=O)c1ccc(N2N=C(C(F)(F)F)CC2c2ccc(F)cc2F)cc1 (stereo not shown) [Enflicoxib] the “Time-dependent pharmacokinetics or over-accumulation” value ([1]; 6 months of weekly treatment) was “no evidence of time-dependent pharmacokinetics or over-accumulation”, the AUCτ [1, 4] was 3,810 ng/mL·d and the Cmin [1, 4] was ~ 185 ng/mL. The Cmax ([1]; mean, all weeks of weekly treatment, Bayesian predicted profiles) was “≈ 1,173 ng/mL”, the “Time to PK steady-state” value ([1]; weekly treatment) was 4 weeks and the “Stability in dog plasma” value ([2]; following 4 freeze–thaw cycles) was “stable”. For the same molecule, the “Stability in dog plasma” value ([2]; nominally −20 °C for 402 days) was “stable”, the “Stability in dog plasma” value ([2]; room temperature for 4 h) was “stable” and the “Long-term stability in dog plasma samples” value ([2]; stored at −20 °C) was no less than 402 days. The “Dose proportionality of pharmacokinetics” value [3] was “dose-proportional pharmacokinetics”.
